According to patent US20070219243A1, “Method for improving the pharmacokinetics of HIV integrase inhibitors” (priority 2005, published 2007):

What was measured:
[1] = Example 5: drug-drug interaction of zidovudine and Compound 1/r
Source text: (§1) Zidovudine is a NRTI used in HIV patients.
(§2) PK parameters were estimated using WinNonlin™ 5.0.1 (Pharsight Corporation, Mountain View, Calif., USA).

[2] = Example 5: safety of zidovudine and Compound 1/r; type: in vivo, human
Source text: as §1, §2

CYP3A (hepatic) = test: Example 3: IV midazolam probe for CYP3A activity at a range of RTV doses; conditions: human, plasma, iv, probe midazolam; for AUC(0-inf): AUCinf (mean); for clearance: CL (mean); for half-life: Half-life (mean)
Method: (§3) The effects of a range of RTV doses (20, 50, 100, and 200 mg once daily) on hepatic cytochrome P450 3A (CYP3A) activity were also evaluated using a CYP3A substrate.
(§4) For MDZ: AUC0-last, AUCinf, % AUCexp, Clast, Tlast, λ, T1/2, CL and Vz.
(§5) The population mean slope was estimated along with a corresponding 90% CI. This study was performed in compliance with the guidelines of Good Clinical Practices (GCPs).

[3] = test system: hepatic cytochrome P450 3A (CYP3A) activity; test: as above
Method: as §3, §4, §5

[4] = Example 1: pharmacokinetics of Compound 1 alone and with RTV in healthy subjects; type: in vivo, human
Source text: The study was an open-label, fixed-sequence, crossover, pharmacokinetic study with 12 subjects. The subjects were healthy males and non-pregnant, nonlactating females between 18 and 45 years of age, inclusive. The duration of the study was 20 days, with Period 1 of Days 1 to 10 and Period 2 of days 11 to 20. Follow-up contact was on day 27.

[5] = both, human, in vivo
[6] = Example 3: pharmacokinetics of Compound 1 and RTV at a range of RTV doses; conditions: RTV in plasma, mean (CV %); for AUC / Cmax / half-life: both, human; for AUC: AUCtau
[7] = plasma, oral, Compound 1 125 mg + 20 mg RTV QD
[8] = plasma, oral, Compound 1 125 mg + 50 mg RTV QD
[9] = plasma, oral, Compound 1 125 mg + 200 mg RTV QD

With Cc1cn([C@H]2C[C@H](N=[N+]=[N-])[C@@H](CO)O2)c(=O)[nH]c1=O [ZDV, zidovudine] the “AUCtau, Cmax, Ctau (Compound 1 only) 90% CI of GMR (co-administration: alone)” value ([1]; Compound 1/r 200/100 mg QD + ZDV 300 mg BID, with a meal, bounds 70% to 143%) was “within predefined PK equivalence bounds”, the Pharmacokinetic drug-drug interaction ([1]; in vivo) was “no clinically relevant pharmacokinetic drug-drug interaction” and the Tolerability ([2]; Compound 1/r 200/100 mg QD and ZDV 300 mg BID, alone and in combination) was “generally well tolerated”. For the same compound, the Safety of co-administration ([2]; zidovudine co-administered with Compound 1/r) was “safe and well tolerated”.

Cc1ncc2n1-c1ccc(Cl)cc1C(c1ccccc1F)=NC2 [MDZ, midazolam] gave an AUC(0-inf) (CYP3A (hepatic); 1 mg, MDZ 1 mg IV alone, Day 1) of 31 ng·h/mL, a clearance (CYP3A (hepatic); 1 mg, MDZ 1 mg IV alone) of 7.45 mL/min/kg and a half-life (CYP3A (hepatic); 1 mg, MDZ 1 mg IV alone) of 3.97 h. It also gave an AUC(0-inf) (CYP3A (hepatic); MDZ 1 mg IV, +20 mg RTV QD (with Compound 1 125 mg)) of 101 ng·h/mL, an AUC(0-inf) (CYP3A (hepatic); MDZ 1 mg IV, +50 mg RTV QD (with Compound 1 125 mg)) of 145 ng·h/mL and an AUC(0-inf) (CYP3A (hepatic); MDZ 1 mg IV, +100 mg RTV QD (with Compound 1 125 mg)) of 219 ng·h/mL. The AUC(0-inf) (CYP3A (hepatic); MDZ 1 mg IV, +200 mg RTV QD (with Compound 1 125 mg)) was 146 ng·h/mL, the clearance (CYP3A (hepatic); MDZ 1 mg IV, +20 mg RTV) was 2.38 mL/min/kg and the clearance (CYP3A (hepatic); MDZ 1 mg IV, +50 mg RTV) was 1.5 mL/min/kg. For the same compound, the clearance (CYP3A (hepatic); MDZ 1 mg IV, +100 mg RTV) was 1.2 mL/min/kg, the clearance (CYP3A (hepatic); MDZ 1 mg IV, +200 mg RTV) was 1.45 mL/min/kg and the half-life (CYP3A (hepatic); MDZ 1 mg IV, +20 mg RTV) was 7.83 h. It also gave a half-life (CYP3A (hepatic); MDZ 1 mg IV, +50 mg RTV) of 14.4 h, a half-life (CYP3A (hepatic); MDZ 1 mg IV, +100 mg RTV) of 22.4 h and a half-life (CYP3A (hepatic); MDZ 1 mg IV, +200 mg RTV) of 15.2 h. The “Clast (mean)” value ([3]; MDZ 1 mg IV alone) was 0.20 ng/mL, the “Clast (mean)” value ([3]; MDZ 1 mg IV, +20 mg RTV) was 1.53 ng/mL and the “Clast (mean)” value ([3]; MDZ 1 mg IV, +50 mg RTV) was 2.51 ng/mL. For the same compound, the “Clast (mean)” value ([3]; MDZ 1 mg IV, +100 mg RTV) was 3.34 ng/mL and the “Clast (mean)” value ([3]; MDZ 1 mg IV, +200 mg RTV) was 2.58 ng/mL.

With CC(C)c1nc(CN(C)C(=O)N[C@H](C(=O)N[C@@H](Cc2ccccc2)C[C@H](O)[C@H](Cc2ccccc2)NC(=O)OCc2cncs2)C(C)C)cs1 [Ritonavir, (2S,3S,5S)-5-(N-(N-((N-Methyl-N-((2-isopropyl-4-thiazolyl)methyl)amino)-carbonyl)-L-valinyl)amino)-2-(N-((5-thiazolyl)methoxycarbonyl)amino)-1,6-diphenyl-3-hydroxyhexane, reference compound] the half-life ([4]; both sexes, human, plasma, oral, 100 mg, ritonavir in plasma, Day 11, single dose RTV 100 mg with Compound 1, median) was 5.1 h, the AUC(0-inf) ([4]; both sexes, human, plasma, oral, 100 mg, read-out: AUC (AUCinf)) was 4980 ng·h/mL and the AUC ([4]; both sexes, human, plasma, oral, ritonavir in plasma, Day 20, RTV 100 mg + Compound 1 100 mg twice daily, mean, read-out: AUC (AUCtau)) was 9400 ng·h/mL. The Ctau ([4]; ritonavir in plasma, Day 11, single dose RTV 100 mg with Compound 1, mean) was 219.8 ng/mL, the Ctau ([4]; ritonavir in plasma, Day 20, RTV 100 mg + Compound 1 100 mg twice daily, mean) was 544.8 ng/mL and the “Dose proportionality of RTV exposures” value [5] was “RTV exposures not dose-proportional, very low exposures at 20 mg with BLQ concentrations (<0.5 ng/ml) by 16 hr in some subjects”. The Ctau ([6]; Compound 1 125 mg + 20 mg RTV QD) was 0.718 (98.8) ng/ml, the Ctau ([6]; Compound 1 125 mg + 50 mg RTV QD) was 11.6 (66.2) ng/ml and the Ctau ([6]; Compound 1 125 mg + 100 mg RTV QD) was 53.8 (41.6) ng/ml. For the same compound, the Ctau ([6]; Compound 1 125 mg + 200 mg RTV QD) was 78.5 (36.7) ng/ml, the AUC ([6]; in vivo, Compound 1 125 mg + 100 mg RTV QD) was 6550 ng·h/mL and the AUC [6, 7] was 135 ng·h/mL. For the same compound, the AUC [6, 8] was 1120 ng·h/mL, the AUC [6, 9] was 16000 ng·h/mL and the Cmax [6, 7] was 19.5 ng/mL. The Cmax [6, 8] was 130 ng/mL, the Cmax [6, 9] was 2460 ng/mL and the half-life [6, 7] was 4.74 h. For the same compound, the half-life [6, 8] was 6.54 h, the half-life ([6]; plasma, oral, Compound 1 125 mg + 100 mg RTV QD) was 6.34 h and the half-life [6, 9] was 5.71 h.
